System: rat small-intestinal brush border membrane vesicles
Assay: Inhibitory effect on 33PO4 uptake into rat small-intestinal brush border membrane vesicles (rapid filtration method)
Type: biochemical
Settings: 33PO4 uptake into rat small-intestinal BBMVs; test compound 1 µM; reacted for 60 seconds
Experimental: Brush border membrane vesicles (BBMVs) were prepared using the upper region of the small intestine of each Wistar female rat (4-5 weeks old). […] The ^33PO4 transport activity of the small-intestinal BBMVs was determined by the rapid filtration method. […] Then, ice-cold buffer C (110 mM NaCl, 1 mM KH2PO4, and 10 mM HEPES (pH 7.5)) was added to each reaction mixture, which was immediately suctionfiltered through a Millipore filter. The filter was washed with buffer C, and each sample was then dissolved in a liquid scintillator. The amount of ^33PO4 uptake into BBMVs was measured using a liquid scintillation counter. […]

SMILES	Rate of uptake inhibition (%) (1 µM)
C[C@]12CCCN1N(Cc1ccc(Cl)cc1)C(=O)C(C(=O)Nc1cc(F)c(Br)c(F)c1)=C2O [Example 223]	77
Cc1c(-c2cc(C(F)(F)F)ccc2NC(=O)C2=C(O)C3(CCC3)N(C)N(Cc3ccc(OCCN4CCOCC4)c(F)c3F)C2=O)ncnc1C(F)(F)F [Example 285]	62
C[C@]12CCCN1N(Cc1cccc(F)c1F)C(=O)C(C(=O)Nc1cc(F)c(Br)c(F)c1)=C2O [Example 29]	75
C[C@]12CCCN1N(Cc1cccc(F)c1F)C(=O)C(C(=O)Nc1ccc(C(F)(F)F)cc1-c1ccc(C(F)(F)F)nc1)=C2O [Example 90]	91
C[C@]12CCCN1N(Cc1ccc(Br)cc1F)C(=O)C(C(=O)Nc1cc(F)c(Br)c(F)c1)=C2O [Example 166, (4aR)-N-(4-Bromo-3,5-difluorophenyl)-1-[(4-bromo-2-fluorophenyl)methyl]-4-hydroxy-4a-methyl-2-oxo-6,7-dihydro-5H-pyrrolo[1,2-b]pyridazine-3-carboxamide]	73
CC(C)[C@@H]1C(O)=C(C(=O)Nc2ccc(Cl)cc2-c2ccc(C(F)(F)F)nc2)C(=O)N(Cc2cccc(F)c2F)N1C [Example 251]	43
CN1N(Cc2ccc(OCCCCCOC[C@H](O)CO)c(F)c2F)C(=O)C(C(=O)Nc2ccc(C(F)(F)F)cc2-c2cc(C(F)(F)F)ncn2)=C(O)C12CCC2 [Example 391]	42
CSc1ccc(-c2cc(C(F)(F)F)ccc2NC(=O)C2=C(O)[C@@]3(C)CCCN3N(Cc3ccc(C#CCCCCC(=O)O)c(F)c3F)C2=O)cn1 [Example 117, 7-[4-[[(4aR)-4-Hydroxy-4a-methyl-3-[[2-(6-methylsulfanylpyridin-3-yl)-4-(trifluoromethyl)phenyl]carbamoyl]-2-oxo-6.7-dihydro-5H-pyrrolo[1.2-b]pyridazin-1-yl]methyl]-2,3-difluorophenyl]hept-6-ynoate]	78
CN1N(Cc2ccc(OCCN3CCN(CCOCCO)CC3)c(F)c2F)C(=O)C(C(=O)Nc2ccc(C(F)(F)F)cc2-c2cc(C(F)(F)F)ncn2)=C(O)C12CCCC2 [Example 378]	35
C[C@]12CCCN1N(Cc1cccc(OC(F)F)c1)C(=O)C(C(=O)Nc1ccc(C(F)(F)F)cc1-c1ccc(C(F)(F)F)nc1)=C2O [Example 167]	73
C[C@]12CCCN1N(Cc1cccc(F)c1F)C(=O)C(C(=O)Nc1ccc(Br)cn1)=C2O [Example 78]	71
COc1cccc(-c2cc(C(F)(F)F)ccc2NC(=O)C2=C(O)[C@@]3(C)CCCN3N(Cc3ccc(C#CCOCCCCO)c(F)c3F)C2=O)c1OC [Example 123, (4aR)-1-[[2,3-Difluoro-4-[3-(4-hydroxybutoxy)prop-1-ynil]phenyl]methyl)-N-[2-(2.3-dimethoxyphenyl)-4-(trifluoromethyl)phenyl]-4-hydroxy-4a-methyl-2-oxo-6,7-dihydro-5H-pyrrolo[1,2-b]pyridazine-3-carboxamide]	87
C[C@]12CCCN1N(Cc1cc(F)ccc1F)C(=O)C(C(=O)Nc1cc(F)c(Br)c(F)c1)=C2O [Example 193]	82
CN1N(Cc2ccc(OCCN3CC(F)(F)C3)c(F)c2F)C(=O)C(C(=O)Nc2ccc(C(F)(F)F)cc2-c2cc(C(F)(F)F)ncn2)=C(O)C12CCCC2 [Example 369]	43
C[C@]12CCCN1N(Cc1cccc(Cl)c1)C(=O)C(C(=O)Nc1ccc(C(F)(F)F)cc1-c1cc(C(F)(F)F)ncn1)=C2O [Example 181]	85
C[C@@H]1COC[C@H](C)N1CCOc1ccc(CN2C(=O)C(C(=O)Nc3ccc(C(F)(F)F)cc3-c3cc(C(F)(F)F)ncn3)=C(O)C3(CCC3)N2C)c(F)c1F [Example 344]	58
CN1N(Cc2ccc(OCCN3CCN(S(C)(=O)=O)CC3)c(F)c2F)C(=O)C(C(=O)Nc2ccc(C(F)(F)F)cc2-c2cc(C(F)(F)F)ncn2)=C(O)C12CCC2 [Example 363]	11

SMILES	Rate of uptake inhibition (%) (1 µM)
CN1N(Cc2ccc(OCCCCOCCO)c(F)c2F)C(=O)C(C(=O)Nc2ccc(C(F)(F)F)cc2-c2cc(C(F)(F)F)ncn2)=C(O)C12CCCC2 [Example 396]	38
C[C@]12CCCN1N(Cc1ccc(F)cc1F)C(=O)C(C(=O)Nc1cc(F)c(Br)c(F)c1)=C2O [Example 192]	88
COCCN(CCOC)CCOc1ccc(CN2C(=O)C(C(=O)Nc3ccc(C(F)(F)F)cc3-c3cc(C(F)(F)F)ncn3)=C(O)C3(CCC3)N2C)c(F)c1F [Example 348]	31
C[C@]12CCCN1N(Cc1c(Cl)cc(OCCN3CCOCC3)cc1Cl)C(=O)C(C(=O)Nc1ccc(C(F)(F)F)nc1-c1ccc(C(F)(F)F)nc1)=C2O.Cl [Example 148, (4aR)-1-[[2,6-Dichloro-4-(2-morpholin-4-ylethoxy)phenyl]methyl]-4-hydroxy-4a-methyl-2-oxo-N-[6-(trifluoromethyl)-2-16-(trifluoromethyl)pyridin-3-yl]pyridin-1-yl]-6,7-dihydro-5H-pyrrolo[1,2-bipyridazine-3-carboxamide hydrochloride]	75
COCCOCCOCCCCCCCCN1C(=O)C(C(=O)Nc2ccc(C(F)(F)F)cc2-c2cc(C(F)(F)F)ncn2)=C(O)[C@@]2(C)CCCN12 [Example 236, (4aR)-4-Hydroxy-1-[8-[2-(2-methoxyethoxy)ethoxy]octyl]-4a-methyl-2-oxo-N-[4-(trifluoromethyl)-2-[6-(trifluoromethyl)pyrimidine-4-yl]phenyl]-6,7-dihydro-5H-pyrrolo[1,2-b]pyridazine-3-carboxamide]	60
CN(CCOCCOc1ccc(CN2C(=O)C(C(=O)Nc3ccc(C(F)(F)F)cc3-c3cc(C(F)(F)F)ncn3)=C(O)C3(CCCC3)N2C)c(F)c1F)C[C@H](O)[C@@H](O)[C@H](O)[C@H](O)CO [Example 420, 7-[[2,3-Difluoro-4-[2-[2-[methyl-[(2S,3R,4R,5R)-2,3,4,5,6-pentahydroxyhexyl]amino]ethoxy]ethoxy]phenyl]methyl]-10-hydroxy-6-methyl-8-oxo-N-[4-(trifluoromethyl)-2-[6-(trifluoromethyl)pyrimidin-4-yl]phenyl]-6,7-diazaspiro[4.5]dec-9-ene-9-carboxamide]	19
CN1N(Cc2ccc(OCCOCCNCC(O)CO)c(F)c2F)C(=O)C(C(=O)Nc2ccc(C(F)(F)F)cc2-c2cc(C(F)(F)F)ncn2)=C(O)C12CCCC2 (stereo not drawn) [Example 419, 7-[[4-[2-[2-(2,3-Dihydroxypropylamino)ethoxy]ethoxy]-2,3-difluorophenyl]methyl]-10-hydroxy-6-methyl-8-oxo-N-[4-(trifluoromethyl)-2-[6-(trifluoromethyl)pyrimidin-4-yl]phenyl]-6,7-diazaspiro[4.5]dec-9-ene-9-carboxamide]	22
Cc1ccccc1CN1C(=O)C(C(=O)Nc2ccc(C(F)(F)F)cc2-c2cc(C(F)(F)F)ncn2)=C(O)[C@@]2(C)CCCN12 [Example 185]	83
CN1N(Cc2cccc(F)c2F)C(=O)C(C(=O)Nc2ccc(C(F)(F)F)cc2-c2ccc(C(F)(F)F)nc2)=C(O)C12CCC2 [Example 301]	79
COC(=O)c1cccc(-c2cc(C(F)(F)F)ccc2NC(=O)C2=C(O)[C@@]3(C)CCCN3N(Cc3cccc(F)c3F)C2=O)c1OC [Example 65]	98
CN1N(Cc2ccc(OCCOCCOCCOCCNC(=O)[C@@H](O)[C@H](O)[C@@H](O)[C@@H](O)CO)c(F)c2F)C(=O)C(C(=O)Nc2ccc(C(F)(F)F)cc2-c2cc(C(F)(F)F)ncn2)=C(O)C12CCCC2 [Example 428, 7-[[2,3-Difluoro-4-[2-[2-[2-[2-[[(2S,3R,4S,5S)-2,3,4,5,6-pentahydroxyhexanoyl]amino]ethoxy]ethoxy]ethoxy]ethoxy]phenyl]methyl]-10-hydroxy-6-methyl-8-oxo-N-[4-(trifluoromethyl)-2-[6-(trifluoromethyl)pyrimidin-4-yl]phenyl]-6,7-diazaspiro[4. 5]dec-9-ene-9-carboxamide]	14
C[C@]12CCCN1N(Cc1cccc(F)c1F)C(=O)C(C(=O)Nc1ccc(C(F)(F)F)cc1)=C2O [Example 89]	67
CCC1(CC)C(O)=C(C(=O)Nc2ccc(Cl)cc2-c2cc(C(F)(F)F)ncn2)C(=O)N(Cc2ccc(OCCN3CCOCC3)c(F)c2F)N1C [Example 292]	44
C[C@]12CCCN1N(Cc1cc(Cl)ccc1F)C(=O)C(C(=O)Nc1ccc(C(F)(F)F)cc1-c1cc(C(F)(F)F)ncn1)=C2O [Example 211]	72
CN1N(Cc2ccc(OCCNC(CC(=O)O)CC(=O)O)c(F)c2F)C(=O)C(C(=O)Nc2ccc(C(F)(F)F)cc2-c2cc(C(F)(F)F)ncn2)=C(O)C12CCCC2 [Example 382, 3-[2-[2.3-Difluoro-4-[[10-hydroxy-6-methyl-8-oxo-9-[[4-(trifluoromethyl)-2-[6-(trifluoromethyl)pyrimidin-4-yl]phenyl]carbamoyl]-6,7-diazaspiro[4.5]dee-9-en-7-yl)methyl]phenoxy]ethylamino]pentanedioate]	21
COCCN(C)CCOc1ccc(CN2C(=O)C(C(=O)Nc3ccc(C(F)(F)F)cc3-c3cc(C(F)(F)F)ncn3)=C(O)C3(CCC3)N2C)c(F)c1F [Example 13, 6-[[2,3-Difluoro-4-[2-[2-methoxyethyl(methyl)amino]ethoxy]phenyl]methyl]-9-hydroxy-5-methyl-7-oxo-N-[4-(trifluoromethyl)-2-[6-(trifluoromethyl)pyrimidin-4-yl]phenyl]-5,6-diazaspiro[3.5]non-8-ene-8-carboxamide]	58

Reference: patent EP3928779A1 (Chugai Seiyaku Kabushiki Kaisha, priority 2014, dated 2016)
